Results published in ChEMBL document CHEMBL1201862, “PubChem BioAssay data set” (2004).
Calls of active or inactive are those of the source.

Assays:
[1] = molecular target: FAD-linked sulfhydryl oxidase ALR (Homo sapiens, UniProt P55789); assay: ALR-catalysed DTT oxidation blockers – biochemical, H2O2 detection, luminescence, cherry-pick, dose response (AID 493248)
[2] = molecular target: T1, RNA-binding protein pos-1 (Caenorhabditis elegans, UniProt G5EF15); assay: disruptors of C. elegans POS-1 RNA interaction – biochemical, fluorescence polarization, dose response (AID 1964);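 note: purified POS-1 fused to maltose binding protein made in E. coli; potency of compounds blocking POS-1 binding to fluorescent RNA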
T1 sequence (G5EF15 whole entry): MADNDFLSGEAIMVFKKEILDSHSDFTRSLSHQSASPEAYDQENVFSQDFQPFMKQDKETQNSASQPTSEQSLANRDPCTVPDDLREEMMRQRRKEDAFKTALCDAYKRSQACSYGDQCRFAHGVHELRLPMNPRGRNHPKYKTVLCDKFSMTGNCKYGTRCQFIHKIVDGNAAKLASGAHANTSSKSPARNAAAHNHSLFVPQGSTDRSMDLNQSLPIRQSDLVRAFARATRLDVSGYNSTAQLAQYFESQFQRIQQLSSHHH

[3] = molecular target: T2, Zinc finger protein mex-5 (Caenorhabditis elegans, UniProt Q9XUB2); assay: potency of MEX-5 RNA-binding blockers – biochemical, C. elegans, fluorescence polarization, dose response (AID 1960)
T2 sequence (Q9XUB2 whole entry): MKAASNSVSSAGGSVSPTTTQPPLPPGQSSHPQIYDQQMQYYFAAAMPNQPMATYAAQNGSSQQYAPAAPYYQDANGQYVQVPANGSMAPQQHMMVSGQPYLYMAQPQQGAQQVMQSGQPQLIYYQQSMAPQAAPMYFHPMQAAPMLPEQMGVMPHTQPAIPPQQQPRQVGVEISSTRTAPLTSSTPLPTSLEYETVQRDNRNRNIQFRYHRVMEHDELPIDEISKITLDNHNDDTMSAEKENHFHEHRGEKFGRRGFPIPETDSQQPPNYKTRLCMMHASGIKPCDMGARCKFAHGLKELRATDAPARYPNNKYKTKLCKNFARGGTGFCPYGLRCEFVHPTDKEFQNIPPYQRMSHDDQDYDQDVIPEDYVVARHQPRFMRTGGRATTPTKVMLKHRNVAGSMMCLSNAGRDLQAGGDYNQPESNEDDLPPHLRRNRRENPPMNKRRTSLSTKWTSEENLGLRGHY

[4] = blockers of HIV-1 envelope-mediated cell-cell fusion – cherry-pick, dose response (AID 652057); assay type: functional, cell-based
[5] = blockers of HIV-1 ZM109 envelope-driven cell-cell fusion – HeLa effector, CEM target cells, luciferase, cherry-pick, dose response (AID 652058); assay type: functional, cell-based;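 note: luciferase signal from HIV-1 Env mediated cell-cell fusion of effector and target cells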
[6] = off-target signal loss in HeLa-CEM21 co-culture – HeLa F-luc CTL cells, cherry-picked, counter-screen for HIV-1 Env fusion inhibitor project, dose response (AID 652040); assay type: functional, cell-based;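 note: potency for signal decrease marking cytotoxic or nonspecific inhibition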
[7] = HIV-1 AD8 envelope cell-cell fusion blockers – cherry-pick, dose response (AID 652062); assay type: functional, cell-based;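 note: luciferase signal from cell-cell fusion driven by HIV-1 clade B AD8 Env; potency is for inhibitors of fusion seen as a drop in luminescence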
[8] = Trypanosoma cruzi growth suppression in host cells – NIH3T3 host cells, beta-gal luminescence, confirmation (AID 2044); assay type: functional, cell-based;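 note: intracellular parasites grown in NIH/3T3 mouse fibroblasts as host cells; luminescent beta-galactosidase reporter signal from transgenic T. cruzi replicating inside host cells; inhibitors lower the luminescence signal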
[9] = NIH3T3 cell viability loss – ATP luminescence, mouse fibroblasts, counter-screen, dose response (AID 2010); assay type: functional, cell-based;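 note: cells exposed to compound for about 90 hours before reading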
[10] = molecular target: T3, Rac GTPase-activating protein 1 (Homo sapiens, UniProt Q9H0H5); assay: blockers of MgcRacGAP-driven Rac1 GTP hydrolysis – biochemical, ADP Hunter fluorescence, primary and confirmatory, confirmation (AID 624330); assay type: functional
T3 sequence (Q9H0H5 whole entry): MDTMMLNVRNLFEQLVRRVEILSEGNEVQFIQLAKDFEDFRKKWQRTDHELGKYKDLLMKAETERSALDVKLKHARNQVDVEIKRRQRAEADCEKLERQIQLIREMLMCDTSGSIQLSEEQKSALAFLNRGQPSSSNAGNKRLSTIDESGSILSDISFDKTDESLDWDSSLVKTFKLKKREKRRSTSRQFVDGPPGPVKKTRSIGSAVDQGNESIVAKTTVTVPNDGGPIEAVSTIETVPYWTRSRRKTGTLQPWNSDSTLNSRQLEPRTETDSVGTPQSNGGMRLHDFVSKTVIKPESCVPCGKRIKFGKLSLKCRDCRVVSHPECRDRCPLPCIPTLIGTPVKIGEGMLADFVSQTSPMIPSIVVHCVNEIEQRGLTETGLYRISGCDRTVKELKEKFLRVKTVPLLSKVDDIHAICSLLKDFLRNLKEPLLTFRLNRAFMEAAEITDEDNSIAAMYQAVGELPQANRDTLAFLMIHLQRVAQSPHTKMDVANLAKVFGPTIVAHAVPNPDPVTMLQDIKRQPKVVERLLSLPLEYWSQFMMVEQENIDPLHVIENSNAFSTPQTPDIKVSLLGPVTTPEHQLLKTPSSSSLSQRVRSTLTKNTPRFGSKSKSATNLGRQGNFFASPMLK

[11] = system: Streptococcus sp. 'group A'; assay: Streptococcus pyogenes SK(-)GAS viability under kanamycin – luminescence, BacTiterGlo, confirmation, counter-screen for streptokinase expression inhibitor project, dose response (AID 1900); assay type: functional, organism-based
[12] = molecular target: T4, Streptokinase A (Streptococcus pyogenes serotype M1, UniProt P10520); assay: viability-normalized secreted streptokinase activity reduction – plasminogen activation absorbance, OD405, dose response (AID 1914); assay type: functional, Streptococcus pyogenes M1 GAS;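 note: secreted streptokinase activity via plasminogen activation per viability signal from cell pellet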
T4 sequence (P10520 whole entry): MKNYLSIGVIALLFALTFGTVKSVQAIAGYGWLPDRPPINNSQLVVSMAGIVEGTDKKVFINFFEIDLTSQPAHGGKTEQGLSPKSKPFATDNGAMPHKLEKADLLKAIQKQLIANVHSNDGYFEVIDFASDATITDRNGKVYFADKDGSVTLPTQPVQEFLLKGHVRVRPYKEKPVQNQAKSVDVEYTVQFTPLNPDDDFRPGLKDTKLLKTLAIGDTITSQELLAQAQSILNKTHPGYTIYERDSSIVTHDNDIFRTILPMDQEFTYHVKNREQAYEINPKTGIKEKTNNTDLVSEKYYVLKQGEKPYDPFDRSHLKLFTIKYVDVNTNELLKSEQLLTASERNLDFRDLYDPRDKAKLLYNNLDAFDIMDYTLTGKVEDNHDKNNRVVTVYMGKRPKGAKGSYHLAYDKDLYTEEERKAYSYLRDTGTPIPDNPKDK

[13] = system: Streptococcus; assay: GAS UMAA2166 growth inhibition – luminescence, BacTiterGlo, counter-screen for streptokinase expression inhibitor project, dose response (AID 1915); assay type: functional, organism-based;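 note: potency for reduction of bacterial viability or growth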
[14] = molecular target: T5, Heat shock factor protein 1 (Mus musculus, UniProt P38532); assay: decrease of HSF1-responsive luciferase luminescence – cell-based, NIH3T3, dose retest, confirmation (AID 2382); assay type: functional;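 note: NIH3T3 fibroblasts with HSF1-driven luciferase reporter stressed by proteasome inhibitor MG132; luminescence from HSF1-driven luciferase expression after 8 hours of MG132 stress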
T5 sequence (P38532 whole entry): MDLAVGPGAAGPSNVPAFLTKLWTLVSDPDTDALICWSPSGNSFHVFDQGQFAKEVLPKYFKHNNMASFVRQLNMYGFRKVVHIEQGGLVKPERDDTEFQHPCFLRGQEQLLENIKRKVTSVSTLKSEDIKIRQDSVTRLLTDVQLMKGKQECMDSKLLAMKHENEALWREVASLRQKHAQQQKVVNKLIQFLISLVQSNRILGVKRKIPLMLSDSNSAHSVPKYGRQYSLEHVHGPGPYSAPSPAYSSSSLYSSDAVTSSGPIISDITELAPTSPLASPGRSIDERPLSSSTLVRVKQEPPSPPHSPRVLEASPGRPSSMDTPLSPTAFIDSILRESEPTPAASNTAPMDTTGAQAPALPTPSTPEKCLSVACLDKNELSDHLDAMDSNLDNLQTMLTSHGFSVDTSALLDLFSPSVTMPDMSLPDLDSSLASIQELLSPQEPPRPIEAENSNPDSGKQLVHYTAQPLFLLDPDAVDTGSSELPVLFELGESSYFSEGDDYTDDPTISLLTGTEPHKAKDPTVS

[15] = intracellular Trypanosoma cruzi inhibitors in host cells – cell-based, plate reader, cherry-pick samples, set 3, dose response (AID 651818); assay type: functional;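 note: compounds incubated with infected cells for about four days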

Chain of FAD-linked sulfhydryl oxidase ALR (P55789 whole entry, the tested form may be a part): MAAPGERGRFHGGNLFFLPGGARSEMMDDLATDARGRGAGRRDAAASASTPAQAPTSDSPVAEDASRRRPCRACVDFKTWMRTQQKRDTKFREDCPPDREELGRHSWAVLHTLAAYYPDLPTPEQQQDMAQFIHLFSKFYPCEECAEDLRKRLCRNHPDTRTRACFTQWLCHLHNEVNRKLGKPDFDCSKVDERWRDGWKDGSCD

Nc1scc(-c2ccncc2)c1Cl
AC50 [1]: 1.73 µM (active)

Nc1ncc(Br)cc1S(=O)(=O)NCCC(=O)N1CCN(c2ccccc2)CC1
AC50 [1]: 1.56 µM (active)

Cc1ccc2nc(O)c(CN(CCO)Cc3nnnn3CCc3ccccc3)cc2c1
EC50 [2]: > 300 µM (not active)
EC50 [3]: > 300 µM (not active)

O=C(N[C@H]1CP(=O)(Oc2ccccc2)O[C@H](COCc2ccccc2)[C@H]1O)C(Cl)(Cl)Cl (stereo not given in full)
EC50 [2]: > 300 µM (not active)
EC50 [3]: > 300 µM (not active)

CN(C)c1ccc(C(c2nnnn2C(C)(C)C)N2CCN(C(=O)c3ccco3)CC2)cc1 (stereo not given)
AC50 [1]: 3.83 µM (active)

COC(=O)CCC(=O)OC1(C)C(=O)C2=CN(CCc3ccccn3)C(c3ccc(OC)cc3)=CC2=C(Br)C1=O (stereo not given)
EC50 [2]: 68.5 µM (active)
EC50 [3]: 8.83 µM (active)

CC(C)CNC(=O)c1ccccc1NC(=O)c1ccccc1N(C)S(=O)(=O)c1ccccc1
AC50 [4]: 0.961 µM (active)
AC50 [5]: 0.937 µM (active)
AC50 [6]: 1.62 µM (active)
AC50 [7]: 0.261 µM (active)

CC(C)(C)OC(=O)NCCCC1=CC2=CC(=O)C(C)(OC(=O)c3ccco3)C(=O)C2=CO1 (stereo not given)
EC50 [2]: 46.9 µM (active)
EC50 [3]: 46.8 µM (active)

CN(Cc1ccc(Cl)cc1Cl)C(=O)c1cccc(S(=O)(=O)N2CCN(c3ccccc3)CC2)c1
EC50 [8]: 1.64 µM (active)
EC50 [9]: > 60 µM (not active)
AC50 [4]: 23.9 µM (active)
AC50 [5]: 36 µM (active)
AC50 [6]: > 70 µM (inactive)
AC50 [7]: 43 µM (active)

Nc1ccc2[nH]c(C3CCCCC3)nc2c1
AC50 [1]: 1.13 µM (active)
IC50 [10]: 70.2 µM (active)

COc1ccc(N2CCN(C(=O)Cc3ccc(OC)c(OC)c3)CC2)cc1
AC50 [1]: 7.7 µM (active)

Cc1ccc(/C=C2/Sc3ccc(C(=O)N4CCC5(CC4)OCCO5)cc3NC2=O)cc1
EC50 [2]: 4.37 µM (active)
EC50 [11]: 7.6 µM (active)
EC50 [3]: 8.06 µM (inconclusive)
EC50 [12]: > 150 µM (not active)
EC50 [13]: 9.49 µM (active)

O=C(CNCC1CCCCC1)Nc1ccc(N2CCCCC2)cc1
AC50 [1]: 13.4 µM (active)

CCCc1nc(-c2ccccc2O)n(-c2ccccc2)n1
EC50 [14]: > 195 µM (not active)

COCc1cc(O)n2ncc(-c3ccsc3)c2n1
AC50 [1]: 3.5 µM (active)

Cn1cc(CN2CCc3ccccc3C2)c2ccccc21
EC50 [14]: > 195 µM (not active)

COc1ccccc1C(=O)Nc1ccc2c(c1)nc1n2CCSC1
AC50 [1]: 0.076 µM (active)

Cc1ccc(N2C(=O)NC(=O)/C(=C\c3cc(C)n(-c4cc(C(=O)O)cc(C(=O)O)c4)c3C)C2=O)cc1
EC50 [2]: > 300 µM (not active)
EC50 [3]: > 300 µM (not active)

O=C(CCc1ccccc1)Nc1cccc([N+](=O)[O-])c1
EC50 [14]: > 195 µM (not active)

CCCCCn1c(SCC(=O)CC(=O)OCC)nc2cc(C(=O)N3CCC(C(N)=O)CC3)ccc2c1=O
EC50 [14]: > 195 µM (not active)

Cc1n[nH]c2ncc(C(=O)c3ccccc3O)cc12
AC50 [4]: 6.5 µM (active)
AC50 [5]: 0.606 µM (active)
AC50 [6]: 2.78 µM (active)
AC50 [7]: 4.64 µM (active)

Cc1cc(OCC(=O)NCCc2ccc(S(N)(=O)=O)cc2)c2c(C)cc(=O)oc2c1
EC50 [14]: > 195 µM (not active)

c1ccc(CN2C3=NCCN3c3ccccc32)cc1
AC50 [1]: 40.9 µM (active)

c1cnc2ccc(C(c3nnnn3C3CCCCC3)N3CCCCC3)cc2c1 (stereo not given)
AC50 [4]: 4.05 µM (active)
AC50 [5]: 14.9 µM (active)
AC50 [6]: 6.97 µM (active)
AC50 [7]: 10.1 µM (active)

C[C@H]1CN([C@@H](C)CO)C(=O)Cc2cc(NS(=O)(=O)c3ccccc3)ccc2O[C@H]1CN(C)Cc1ccc(C(=O)Nc2ccccc2N)cc1
AC50 [15]: 3.55 µM (active)

C[C@H]1CN([C@@H](C)CO)C(=O)Cc2cc(N(C)C)ccc2O[C@H]1CN(C)Cc1ccc(Oc2ccccc2)cc1
AC50 [15]: 1.57 µM (active)

C[C@H]1CN([C@@H](C)CO)C(=O)Cc2cc(NS(=O)(=O)c3ccc(F)cc3)ccc2O[C@@H]1CN(C)Cc1ccc(-c2ccccc2)cc1
AC50 [15]: 3.21 µM (active)

C[C@H](CO)N1C[C@H](C)[C@H](CN(C)CC2CC2)Oc2c(NC(=O)Nc3ccc(C(F)(F)F)cc3)cccc2C1=O
AC50 [15]: 2.66 µM (active)

C[C@@H]1CN([C@@H](C)CO)C(=O)c2cccc(NC(=O)C3CCCCC3)c2O[C@H]1CN(C)CC1CC1
AC50 [15]: 8.92 µM (active)

COc1ccc(S(=O)(=O)Nc2ccc3c(c2)C(=O)N([C@@H](C)CO)C[C@H](C)[C@H](CN(C)Cc2ccc(C(F)(F)F)cc2)O3)cc1
AC50 [15]: 4.07 µM (active)

COc1ccc(NC(=O)Nc2ccc3c(c2)CC(=O)N([C@@H](C)CO)C[C@H](C)[C@H](CN(C)Cc2ccc(-c4ccccc4)cc2)O3)cc1
AC50 [15]: 3.37 µM (active)

C[C@H]1CN([C@@H](C)CO)C(=O)Cc2cc(NC(=O)Cc3cn(C)c4ccccc34)ccc2O[C@H]1CN(C)Cc1ccc(Oc2ccccc2)cc1
AC50 [15]: 5.58 µM (active)

Cc1ccc(S(=O)(=O)N(C)C[C@@H]2Oc3ncc(Br)cc3C(=O)N([C@@H](C)CO)C[C@@H]2C)cc1
AC50 [4]: 4.36 µM (active)
AC50 [5]: 3.56 µM (active)
AC50 [7]: 9.72 µM (active)

CCCCCC(=O)N/N=C/c1cc(Br)c(O)c(OC)c1
AC50 [1]: 0.098 µM (active)
